Common to all, as to assay type: cell-based
In test [1] the target is AXL (phospho-AXL, Gas6-stimulated A-172 glioblastoma cells) (Homo sapiens (Human), UniProt P30530). Put plainly: AXL autophosphorylation ELISA in A-172 cells (Example E). The note with it: cellular activity, read-out: Axl IC50. Summed up: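 Phospho-AXL in lysates was quantified by ELISA, normalised to DMSO (100%) and reference inhibitor (0%) controls. IC50 by 4-parameter logistic fit.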
Background: An ELISA detects its analyte on a solid surface through an enzyme-linked reagent.

In test [2] the target is Met (phospho-Met, HGF-stimulated PC-3 prostate cancer cells) (Homo sapiens (Human), UniProt P08581). Put plainly: Met autophosphorylation ELISA in PC-3 cells (Example F). To be noted: cellular activity, read-out: c-Met IC50. Summed up:
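Compounds were tested on HGF-stimulated PC-3 cells. After 24 h culture and 3 h serum starvation, cells got compound for 1 h and 100 ng/mL HGF for 10 min, and Met tyrosine phosphorylation was measured by ELISA.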

Test [3] addresses KDR (phospho-KDR, VEGF165-stimulated HUVEC cells) (Homo sapiens (Human), UniProt P35968). Put plainly: KDR autophosphorylation ELISA in HUVEC cells (Example G). The note with it: cellular activity. The method in brief: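 HUVEC cells, serum-starved 24 h, were treated 1 h with an 8-point compound dilution (0.3% DMSO) and then stimulated with 100 ng/mL VEGF165 for 5 min. Phospho-KDR in lysates was quantified by sandwich ELISA against a phospho-KDR standard. IC50 from a 4-parameter logistic fit, normalised between stimulated DMSO and unstimulated controls.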

The target in test [4] is Mer (phospho-Mer, MERTK-transfected 293A cells) (Homo sapiens (Human), UniProt Q12866). The test is described as follows: Mer autophosphorylation ELISA in transient transfected 293A cells (Example H). To be noted: cellular activity. Summed up:
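293A cells transiently transfected with human MERTK were treated 1 h in serum-free medium with an 8-point compound dilution (0.3% DMSO final). Lysates were assayed by phospho-Mer sandwich ELISA against a phospho-Mer standard; IC50 came from a 4-parameter logistic fit, normalised to DMSO (100%) and reference-inhibitor (0%) controls.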

Setting [5] is: AXL autophosphorylation ELISA in A-172 cells.
The mark [6] stands for this setting: Met autophosphorylation ELISA in PC-3 cells.
[7] abbreviates: KDR autophosphorylation ELISA in HUVEC cells.
Setting [8] is: Mer autophosphorylation ELISA in transient transfected 293A cells.

Like-named read-outs stand apart in the source and are kept apart here.

By IC50 is commonly meant the midpoint of a concentration-inhibition curve.

KDR (phospho-KDR, VEGF165-stimulated HUVEC cells), sequence (P35968 20-1356): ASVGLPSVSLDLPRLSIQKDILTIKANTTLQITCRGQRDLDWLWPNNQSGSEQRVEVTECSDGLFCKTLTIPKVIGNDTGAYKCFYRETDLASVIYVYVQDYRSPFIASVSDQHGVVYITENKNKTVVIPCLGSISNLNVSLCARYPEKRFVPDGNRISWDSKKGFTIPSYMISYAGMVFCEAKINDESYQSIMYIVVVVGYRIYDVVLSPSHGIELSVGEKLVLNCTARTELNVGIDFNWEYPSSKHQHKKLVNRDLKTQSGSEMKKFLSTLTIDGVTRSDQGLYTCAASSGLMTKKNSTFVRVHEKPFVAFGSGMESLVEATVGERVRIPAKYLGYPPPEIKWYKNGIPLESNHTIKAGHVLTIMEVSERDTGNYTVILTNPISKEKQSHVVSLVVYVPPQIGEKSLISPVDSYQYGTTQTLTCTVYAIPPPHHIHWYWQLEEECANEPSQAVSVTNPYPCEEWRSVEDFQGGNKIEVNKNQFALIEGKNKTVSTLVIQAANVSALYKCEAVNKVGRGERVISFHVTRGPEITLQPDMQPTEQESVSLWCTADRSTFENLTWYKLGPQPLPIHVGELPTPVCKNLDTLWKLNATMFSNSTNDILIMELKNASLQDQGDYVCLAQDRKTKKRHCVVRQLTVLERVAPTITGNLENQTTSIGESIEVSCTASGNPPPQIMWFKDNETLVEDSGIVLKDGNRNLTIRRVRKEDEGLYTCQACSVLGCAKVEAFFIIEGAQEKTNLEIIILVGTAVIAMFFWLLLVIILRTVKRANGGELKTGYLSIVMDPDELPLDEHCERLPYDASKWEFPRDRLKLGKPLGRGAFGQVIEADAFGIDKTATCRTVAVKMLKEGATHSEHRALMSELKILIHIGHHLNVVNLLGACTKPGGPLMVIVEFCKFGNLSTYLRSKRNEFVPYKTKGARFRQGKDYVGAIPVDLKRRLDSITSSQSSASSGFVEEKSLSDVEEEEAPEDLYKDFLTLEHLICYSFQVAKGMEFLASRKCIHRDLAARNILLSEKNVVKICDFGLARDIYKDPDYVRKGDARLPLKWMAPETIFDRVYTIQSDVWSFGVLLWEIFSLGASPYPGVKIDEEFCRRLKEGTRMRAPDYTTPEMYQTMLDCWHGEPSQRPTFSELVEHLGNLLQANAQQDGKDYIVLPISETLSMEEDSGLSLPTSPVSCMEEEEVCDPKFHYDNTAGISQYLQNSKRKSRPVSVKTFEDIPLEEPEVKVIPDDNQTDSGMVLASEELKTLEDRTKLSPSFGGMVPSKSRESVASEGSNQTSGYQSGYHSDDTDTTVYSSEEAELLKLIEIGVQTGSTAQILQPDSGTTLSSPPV
Mer (phospho-Mer, MERTK-transfected 293A cells), sequence (Q12866 21-999): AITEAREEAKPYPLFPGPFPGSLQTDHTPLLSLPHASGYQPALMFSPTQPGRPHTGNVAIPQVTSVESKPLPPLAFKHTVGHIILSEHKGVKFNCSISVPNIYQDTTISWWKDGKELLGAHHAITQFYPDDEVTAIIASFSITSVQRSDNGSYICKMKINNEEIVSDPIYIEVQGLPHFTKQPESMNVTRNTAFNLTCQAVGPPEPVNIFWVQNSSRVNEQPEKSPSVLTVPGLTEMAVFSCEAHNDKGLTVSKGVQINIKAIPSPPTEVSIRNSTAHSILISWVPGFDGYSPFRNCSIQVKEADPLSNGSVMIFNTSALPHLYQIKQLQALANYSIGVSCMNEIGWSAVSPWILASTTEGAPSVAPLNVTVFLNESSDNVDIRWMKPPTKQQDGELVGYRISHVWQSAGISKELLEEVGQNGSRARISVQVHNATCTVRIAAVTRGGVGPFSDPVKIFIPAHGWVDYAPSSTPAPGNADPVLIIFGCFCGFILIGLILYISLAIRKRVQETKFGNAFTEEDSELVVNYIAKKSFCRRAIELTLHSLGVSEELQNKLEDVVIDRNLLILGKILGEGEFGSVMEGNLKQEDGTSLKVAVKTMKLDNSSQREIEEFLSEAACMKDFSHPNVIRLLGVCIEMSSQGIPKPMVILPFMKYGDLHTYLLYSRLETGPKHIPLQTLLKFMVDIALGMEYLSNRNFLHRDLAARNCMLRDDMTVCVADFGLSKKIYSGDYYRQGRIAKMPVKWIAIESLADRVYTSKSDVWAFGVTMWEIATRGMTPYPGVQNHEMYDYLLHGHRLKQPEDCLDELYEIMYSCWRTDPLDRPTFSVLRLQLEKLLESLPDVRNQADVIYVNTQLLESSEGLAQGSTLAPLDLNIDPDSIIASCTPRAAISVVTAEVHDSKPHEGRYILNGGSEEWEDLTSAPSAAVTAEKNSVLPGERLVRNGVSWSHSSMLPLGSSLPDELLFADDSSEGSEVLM
Met (phospho-Met, HGF-stimulated PC-3 prostate cancer cells), sequence (P08581 25-1390): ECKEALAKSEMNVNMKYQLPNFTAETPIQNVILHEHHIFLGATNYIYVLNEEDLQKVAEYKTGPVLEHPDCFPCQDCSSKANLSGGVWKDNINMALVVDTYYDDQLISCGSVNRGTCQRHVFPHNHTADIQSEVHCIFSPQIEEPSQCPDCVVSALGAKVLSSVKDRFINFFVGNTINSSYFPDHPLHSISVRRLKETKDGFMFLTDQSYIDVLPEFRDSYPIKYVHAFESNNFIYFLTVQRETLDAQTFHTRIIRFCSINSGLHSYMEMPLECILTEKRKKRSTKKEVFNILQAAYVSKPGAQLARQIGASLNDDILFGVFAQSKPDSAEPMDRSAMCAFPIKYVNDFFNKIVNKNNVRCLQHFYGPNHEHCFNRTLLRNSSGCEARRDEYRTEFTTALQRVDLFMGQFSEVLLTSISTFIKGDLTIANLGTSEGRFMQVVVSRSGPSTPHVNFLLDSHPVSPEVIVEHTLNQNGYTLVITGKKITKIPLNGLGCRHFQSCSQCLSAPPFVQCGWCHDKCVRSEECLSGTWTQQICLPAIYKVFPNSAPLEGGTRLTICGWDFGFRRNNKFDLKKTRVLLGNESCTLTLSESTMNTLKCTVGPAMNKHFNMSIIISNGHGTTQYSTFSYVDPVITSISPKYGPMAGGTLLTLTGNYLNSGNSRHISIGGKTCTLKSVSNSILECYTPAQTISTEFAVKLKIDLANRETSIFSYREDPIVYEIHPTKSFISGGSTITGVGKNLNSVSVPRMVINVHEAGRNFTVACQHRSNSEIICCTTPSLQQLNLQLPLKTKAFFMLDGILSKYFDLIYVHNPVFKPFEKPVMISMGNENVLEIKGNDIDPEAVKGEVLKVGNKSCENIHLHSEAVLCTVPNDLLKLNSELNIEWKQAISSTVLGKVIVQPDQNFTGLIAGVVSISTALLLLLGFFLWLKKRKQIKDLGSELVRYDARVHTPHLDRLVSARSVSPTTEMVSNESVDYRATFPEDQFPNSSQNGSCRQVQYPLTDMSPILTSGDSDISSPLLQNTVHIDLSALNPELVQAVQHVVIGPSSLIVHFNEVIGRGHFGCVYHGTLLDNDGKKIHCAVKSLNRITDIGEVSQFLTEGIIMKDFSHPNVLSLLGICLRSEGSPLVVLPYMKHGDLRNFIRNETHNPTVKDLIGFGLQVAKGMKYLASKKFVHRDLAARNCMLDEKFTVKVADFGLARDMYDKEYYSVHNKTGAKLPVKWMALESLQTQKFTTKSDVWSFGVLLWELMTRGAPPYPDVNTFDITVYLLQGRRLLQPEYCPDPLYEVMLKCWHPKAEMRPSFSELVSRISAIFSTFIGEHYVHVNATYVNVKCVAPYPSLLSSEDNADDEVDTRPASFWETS
AXL (phospho-AXL, Gas6-stimulated A-172 glioblastoma cells), sequence (P30530 26-894): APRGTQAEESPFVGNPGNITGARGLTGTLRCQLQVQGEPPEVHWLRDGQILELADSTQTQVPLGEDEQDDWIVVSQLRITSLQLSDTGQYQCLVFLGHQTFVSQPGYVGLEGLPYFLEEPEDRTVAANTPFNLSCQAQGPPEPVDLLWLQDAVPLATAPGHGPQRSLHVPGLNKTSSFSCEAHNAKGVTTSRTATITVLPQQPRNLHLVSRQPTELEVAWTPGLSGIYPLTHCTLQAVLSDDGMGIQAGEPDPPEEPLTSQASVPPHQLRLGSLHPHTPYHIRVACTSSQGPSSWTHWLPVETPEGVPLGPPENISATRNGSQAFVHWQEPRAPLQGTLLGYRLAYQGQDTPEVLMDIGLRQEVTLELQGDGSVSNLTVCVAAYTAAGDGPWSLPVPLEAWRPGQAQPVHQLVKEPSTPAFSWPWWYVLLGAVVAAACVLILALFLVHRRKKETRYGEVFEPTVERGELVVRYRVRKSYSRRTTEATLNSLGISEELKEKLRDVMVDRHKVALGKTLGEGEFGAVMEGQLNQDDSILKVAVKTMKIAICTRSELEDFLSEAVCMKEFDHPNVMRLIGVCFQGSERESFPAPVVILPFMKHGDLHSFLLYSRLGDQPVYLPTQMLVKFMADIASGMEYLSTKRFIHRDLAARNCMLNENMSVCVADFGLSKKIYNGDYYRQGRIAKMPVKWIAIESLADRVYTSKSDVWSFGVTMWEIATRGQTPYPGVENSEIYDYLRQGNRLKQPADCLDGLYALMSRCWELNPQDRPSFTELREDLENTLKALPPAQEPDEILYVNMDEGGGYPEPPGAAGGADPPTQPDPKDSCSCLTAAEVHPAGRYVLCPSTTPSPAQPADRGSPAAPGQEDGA

As to `COc1cc2nccc(Oc3ccc(NC(=O)c4c(C)n(C)c(C)c(-c5ccc(F)c(C)c5)c4=O)cc3F)c2nc1OC` [Compound 821, N-[4-[(6,7-dimethoxy-1,5-naphthyridin-4-yl)oxy]-3-fluorophenyl]-5-(4-fluoro-3-methylphenyl)-1,2,6-trimethyl-4-oxopyridine-3-carboxamide], the IC50 in test [1] (A-172 cells) was under 100 nM; in test [2] (PC-3 cells), under 100 nM; in test [3] (HUVEC cells), 100 to 300 nM; in test [4] (transfected 293A cells) it was under 100 nM.
`COc1cc(Oc2ccnc3cc(OC)c(OC)nc23)c(F)cc1NC(=O)c1cn(C)c(C)c(-c2ccc(F)cc2)c1=O` [Compound 743, N-[4-[(6,7-dimethoxy-1,5-naphthyridin-4-yl)oxy]-5-fluoro-2-methoxyphenyl]-5-(4-fluorophenyl)-1,6-dimethyl-4-oxopyridine-3-carboxamide]: the IC50 in test [1] (setting [5]) is under 100 nM; in test [2] (setting [6]), under 100 nM; in test [3] (setting [7]) it was over 300 nM; in test [4] (setting [8]) it was under 100 nM.
Consider `COc1cc2nccc(Oc3ccc(NC(=O)c4c(C)c(F)c(C)n(-c5ccc(F)cc5)c4=O)cc3)c2nc1OC` [Compound 325, N-[4-[(6,7-Dimethoxy-1,5-naphthyridin-4-yl)oxy]phenyl]-5-fluoro-1-(4-fluorophenyl)-4,6-dimethyl-2-oxopyridine-3-carboxamide], for which the IC50 in test [1] (setting [5]), in test [2] (setting [6]), in test [3] (setting [7]) and in test [4] (setting [8]) was under 100 nM throughout.
In the case of `C=C(C)c1cnc2c(Oc3ccc(NC(=O)c4c(C)ncc(-c5ccc(F)cc5C)c4O)cc3F)ccnc2c1` [Compound 474, 5-(4-fluoro-2-methylphenyl)-N-[3-fluoro-4-[(7-prop-1-en-2-yl-1,5-naphthyridin-4-yl)oxy]phenyl]-4-hydroxy-2-methylpyridine-3-carboxamide], the IC50 in test [1] (setting [5]), in test [2] (setting [6]), in test [3] (setting [7]) and in test [4] (setting [8]) was under 100 nM throughout.
On to `COc1cc2nccc(Oc3ccc(NC(=O)c4c(C)n(CC(F)F)cc(-c5ccc(F)c(F)c5)c4=O)cc3F)c2nc1OC` [Compound 816, 1-(2,2-difluoroethyl)-5-(3,4-difluorophenyl)-N-[4-[(6,7-dimethoxy-1,5-naphthyridin-4-yl)oxy]-3-fluorophenyl]-2-methyl-4-oxopyridine-3-carboxamide], for which the IC50 was under 100 nM in test [1] (A-172 cells), under 100 nM in test [2] (PC-3 cells), over 300 nM in test [3] (HUVEC cells) and under 100 nM in test [4] (transfected 293A cells).
In the case of `COc1cnc2c(Oc3ccc(NC(=O)c4c(C)c(C)nn(-c5ccc(F)cc5)c4=O)cc3F)ccnc2c1` [Compound 734, N-[3-fluoro-4-[(7-methoxy-1,5-naphthyridin-4-yl)oxy]phenyl]-2-(4-fluorophenyl)-5,6-dimethyl-3-oxopyridazine-4-carboxamide], the IC50 is 100 to 300 nM in test [1] (setting [5]), under 100 nM in test [2] (setting [6]), over 300 nM in test [3] (setting [7]) and under 100 nM in test [4] (setting [8]).
On to `COc1cnc2c(Oc3ccc(NC(=O)c4c(C)n(CCF)cc(-c5ccc(F)c(C)c5)c4=O)cc3F)ccnc2c1` [Compound 813, 1-(2-fluoroethyl)-N-[3-fluoro-4-[(7-methoxy-1,5-naphthyridin-4-yl)oxy]phenyl]-5-(4-fluoro-3-methylphenyl)-2-methyl-4-oxopyridine-3-carboxamide], for which the IC50 in test [1] (A-172 cells) is under 100 nM; in test [2] (PC-3 cells), under 100 nM; in test [3] (HUVEC cells), 100 to 300 nM; in test [4] (transfected 293A cells), under 100 nM.
Take `COc1cc2nccc(Oc3ccc(NC(=O)c4c(C)c(C)cn(-c5ccc(F)cc5)c4=O)cc3F)c2nc1OC` [Compound 679, N-[4-[(6,7-dimethoxy-1,5-naphthyridin-4-yl)oxy]-3-fluorophenyl]-1-(4-fluorophenyl)-4,5-dimethyl-2-oxopyridine-3-carboxamide]: the IC50 in test [1] (setting [5]), in test [2] (setting [6]), in test [3] (setting [7]) and in test [4] (setting [8]) was under 100 nM each time.
Consider `COc1cc2nccc(Oc3ccc(NC(=O)c4c(C)nc(C)c(-c5ccc(F)cc5C)c4O)cc3)c2nc1Cl` [Compound 735, N-[4-[(6-chloro-7-methoxy-1,5-naphthyridin-4-yl)oxy]phenyl]-5-(4-fluoro-2-methylphenyl)-4-hydroxy-2,6-dimethylpyridine-3-carboxamide], for which the IC50 in test [1] (setting [5]), in test [2] (setting [6]), in test [3] (setting [7]) and in test [4] (setting [8]) was under 100 nM each time.
`COc1cc2nccc(Oc3ccc(NC(=O)c4c[nH]c(=S)n(-c5ccc(F)cc5)c4=O)cc3F)c2cc1OC` [Compound 646, N-[4-(6,7-dimethoxyquinolin-4-yl)oxy-3-fluorophenyl]-3-(4-fluorophenyl)-4-oxo-2-sulfanylidene-1H-pyrimidine-5-carboxamide]: the IC50 in test [1] (setting [5]), in test [2] (setting [6]), in test [3] (setting [7]) and in test [4] (setting [8]) was under 100 nM each time.
`COc1cc2ncnc(Oc3ccc(NC(=O)c4ccc(C)n(-c5ccc(F)cc5)c4=O)cc3F)c2nc1OC` [Compound 635]: the IC50 in test [1] (setting [5]), in test [2] (setting [6]), in test [3] (setting [7]) and in test [4] (setting [8]) was under 100 nM in each case.
`COc1cc(F)ccc1-c1cnc(C)c(C(=O)Nc2ccc(Oc3ccnc4cc(OC)c(OC)nc34)c(F)c2)c1O` [Compound 792, N-[4-[(6,7-dimethoxy-1,5-naphthyridin-4-yl)oxy]-3-fluorophenyl]-5-(4-fluoro-2-methoxyphenyl)-4-hydroxy-2-methylpyridine-3-carboxamide]: the IC50 in test [1] (setting [5]), in test [2] (setting [6]), in test [3] (setting [7]) and in test [4] (setting [8]) was under 100 nM in each case.
As for `CCOc1nc2c(Oc3ccc(NC(=O)c4c(COC)nc(C)c(-c5ccc(F)cc5)c4O)cc3F)ccnc2cc1OC` [Compound 676, N-[4-[(6-ethoxy-7-methoxy-1,5-naphthyridin-4-yl)oxy]-3-fluorophenyl]-5-(4-fluorophenyl)-4-hydroxy-2-(methoxymethyl)-6-methylpyridine-3-carboxamide], the IC50 in test [1] (setting [5]), in test [2] (setting [6]), in test [3] (setting [7]) and in test [4] (setting [8]) was under 100 nM each time.
As to `Cc1ncc(C(=O)Nc2ccc(Oc3ccnc4cnc(Cl)cc34)c(F)c2)c(=O)n1-c1ccc(F)cc1` [Compound 497, N-[4-[(6-chloro-1,7-naphthyridin-4-yl)oxy]-3-fluorophenyl]-1-(4-fluorophenyl)-2-methyl-6-oxopyrimidine-5-carboxamide], the IC50 was under 100 nM in test [1] (setting [5]), under 100 nM in test [2] (setting [6]), over 300 nM in test [3] (setting [7]) and under 100 nM in test [4] (setting [8]).
For the compound `COc1cnc2c(Oc3ccc(NC(=O)c4c(C)c(C)nn(-c5ccc(F)cc5)c4=O)cc3)ccnc2c1` [Compound 733, 2-(4-fluorophenyl)-N-[4-[(7-methoxy-1,5-naphthyridin-4-yl)oxy]phenyl]-5,6-dimethyl-3-oxopyridazine-4-carboxamide], the IC50 in test [1] (setting [5]) was over 300 nM; in test [2] (setting [6]) it was under 100 nM; in test [3] (setting [7]), over 300 nM; in test [4] (setting [8]) it was under 100 nM.
With `COCCOc1cc2nccc(Oc3ccc(NC(=O)c4c(C)ccn(-c5ccc(F)cc5)c4=O)cc3F)c2nc1OC` [Compound 703, N-[3-fluoro-4-[[6-methoxy-7-(2-methoxyethoxy)-1,5-naphthyridin-4-yl]oxy]phenyl]-1-(4-fluorophenyl)-4-methyl-2-oxopyridine-3-carboxamide], the IC50 in test [1] (setting [5]), in test [2] (setting [6]), in test [3] (setting [7]) and in test [4] (setting [8]) was under 100 nM throughout.
As to `COc1cc2nccc(Oc3ccc(NC(=O)c4cn(C(C)(C)CO)cc(-c5ccc(F)cc5)c4=O)cc3F)c2nc1OC` [Compound 56, N-[4-[(6,7-Dimethoxy-1,5-naphthyridin-4-yl)oxy]-3-fluorophenyl]-5-(4-fluorophenyl)-1-(1-hydroxy-2-methylpropan-2-yl)-4-oxopyridine-3-carboxamide], the IC50 is under 100 nM in test [1] (setting [5]), under 100 nM in test [2] (setting [6]), over 300 nM in test [3] (setting [7]) and under 100 nM in test [4] (setting [8]).
Turning to `C=Cc1c(C)c(C(=O)Nc2ccc(Oc3ccnc4cc(OC)c(OC)nc34)c(F)c2)c(=O)n(-c2ccc(F)cc2)c1C` [Compound 327, N-[4-[(6,7-Dimethoxy-1,5-naphthyridin-4-yl)oxy]-3-fluorophenyl]-5-ethenyl-1-(4-fluorophenyl)-4,6-dimethyl-2-oxopyridine-3-carboxamide], the IC50 in test [1] (setting [5]), in test [2] (setting [6]), in test [3] (setting [7]) and in test [4] (setting [8]) was under 100 nM in each case.

These data come from US12371428B2 (Exelixis, Inc., priority 2019, dated 2025).
